The record followed here is US20110230367A1, “Amphiphilic Peptides Promoting Production of Target miRNA and Method of Regulating Production of Target miRNA” (SNU R&DB FOUNDATION, priority 2009, published 2011).

Read-outs that look alike come from different tables or passages of the source.

What all share (test): Dissociation constant by competitive fluorescence anisotropy with rhodamine-rev peptide probe
Holding throughout (assay type): binding

In experiment [1] the target is pre-miR16-1. As to conditions: for Discrimination ratio pre-miR16-1 (in parenthesis): Kd against other RNA/Kd against target miRNA. As for the experimental part: (§1) The binding affinity between the peptide synthesized in <Example 1> and pre-miRNA from <Example 2> were measured by fluorescence anisotropy using competitive binding method. A rev peptide with rhodamine attached at the N-terminal was used as a fluorescent probe and LS-55 luminescence spectrometer from Perkin-Elmer was use for analysis. A constant temperature of 20° C. was maintained by a water bath. The fluorescent intensity was measured by of 200 nM of rhodamine-rev peptide was measured with an excitation wavelength at 550 nm (band path 10 nm) and detection at 580 nm (band path 10 nm). The integration time […]. Each experimental value is the mean value of 5 measurements. A 20 mM of HEPES{4-(2-hydroxyethyl)-1-piperazineethanesulfonic acid} buffer (pH 7.5) containing 140 mM NaCl, 5 mM KCl and 1 mM MgCl2 was used for measuring the dissociation constant. The dissociation constant was determined according to the Mathematical Formula 1 and using Kaledia graph.
(§2) A and Ao are the fluorescence anistropy in the presence or absence of RNA, whereas ΔA is the difference between these two values. [RNA]0 and [Rh-rev]0 are initial concentrations of RNA and rev peptide binding with rhodamine.
(§3) According the method described in <Example 3>, the dissociation constant between second generation peptide and 2 pre-miRNAs synthesized from <Example 2> was determined using fluorescent polarization detection method and fluorescent probe molecule.

The target in experiment [2] is pre-let7a-1. As to conditions: for Discrimination ratio pre-let7a-1 (in parenthesis): Kd against other RNA (HBV, IRES, other miRNAs)/Kd against target miRNA. As for the experimental part: as §1, §2, §3
Experiment [3] concerns the target pre-miR24-1. As to conditions: for Kd / Discrimination ratio pre-miR24-1 (in parenthesis): Table 6; for Discrimination ratio pre-miR24-1 (in parenthesis): Kd against other RNA/Kd against target miRNA. As for the experimental part: as §1, §2, §3
Experiment [4] has as its target HBV (hairpin RNA). As to conditions: Table 6. The protocol: as §1, §2, §3
In experiment [5] the target is IRES (hairpin RNA). As to conditions: Table 6. As for the experimental part:
as §1, §2, §3

[6] abbreviates: Table 3, first generation peptides, 20° C., HEPES pH 7.5, read-out: Kd value with pre-miR16-1.
Setting [7] is: Table 5, second generation peptides, read-out: Kd value against pre-miR16-1.
The mark [8] stands for this setting: Table 3, first generation peptides, 20° C., HEPES pH 7.5, read-out: Kd value with pre-let7a-1.
Setting [9] is: Table 5, second generation peptides, read-out: Kd value against pre-let7a-1.
Where [10] appears, read: Table 6, read-out: Kd pre-miR16-1.
[11] abbreviates: Table 6, read-out: Kd pre-let7a-1.

As for “LKKLLKLLKKLLKLAG [Peptide 1, Ac-LKKLLKLLKKLLKLAG]”, the Kd in experiment [1] (setting [6]) was determined as 12000 pM; in experiment [1] (setting [7]) it was 12000 pM; in experiment [2] (setting [8]), 17000 pM; in experiment [2] (setting [9]), 17000 pM.

On to “LKKLLKLLKKLLKWAG [Peptide 1h, Ac-LKKLLKLLKKLLKWAG]”, for which, in experiment [1], the “binding with pre-miR16-1” value is on record as “significant increase in binding affinity”. Also, the Kd in experiment [1] (setting [6]) came out at 400 pM; in experiment [2] (setting [8]), 110 pM. Also, the “binding with pre-let7a-1” value in experiment [2] is listed as “significant increase in binding affinity”. Moreover, in experiment [2] (pre-miRNA not named, values fit pre-let7a-1), the “increase in binding affinity compared to the peptide with no tryptophan substitution (peptide 1)” value was 150 times.

In the case of “LKKLLKLLKKLWKLAG [Peptide 1g, Ac-LKKLLKLLKKLWKLAG]”, the Kd turned out to be 560 pM in experiment [1] (setting [6]) and 250 pM in experiment [2] (setting [8]).

As for “LKKLLKLLKKLWKWAG [Peptide 2j, Ac-LKKLLKLLKKLWKWAG, 21]”, the Kd was 270 pM in experiment [3]; 350 pM in experiment [4]; 440 pM in experiment [1] (setting [7]); 440 pM in experiment [1] (setting [10]); 370 pM in experiment [2] (setting [9]); 370 pM in experiment [2] (setting [11]). In experiment [5], this sequence gave a Kd of 850 pM. Besides, the “Discrimination ratio pre-miR24-1 (in parenthesis)” value in experiment [3] was 1.9. For the same sequence, the “Discrimination ratio pre-miR16-1 (in parenthesis)” value in experiment [1] (Table 6) stood at 1.4. Besides, the “Discrimination ratio pre-let7a-1 (in parenthesis)” value in experiment [2] (Table 6) turned out to be 1.0.

As to “LKKLLKLLKKWLKLAG [Peptide 1f, Ac-LKKLLKLLKKWLKLAG]”, the Kd in experiment [1] (setting [6]) is 480 pM; in experiment [2] (setting [8]), 320 pM.

Take “LKKLLKLLKKWLKWAG [Peptide 2i, Ac-LKKLLKLLKKWLKWAG, 20]”: the Kd amounted to 530 pM in experiment [3]; 820 pM in experiment [4]; 470 pM in experiment [1] (setting [7]); 470 pM in experiment [1] (setting [10]); 310 pM in experiment [2] (setting [9]); 310 pM in experiment [2] (setting [11]). This sequence also gave a Kd in experiment [5] of 1200 pM. The “Discrimination ratio pre-miR24-1 (in parenthesis)” value in experiment [3] is reported as 1.2. For the same sequence, in experiment [1] (Table 6), the “Discrimination ratio pre-miR16-1 (in parenthesis)” value is reported as 1.6. Further, the “Discrimination ratio pre-let7a-1 (in parenthesis)” value in experiment [2] (Table 6) came to 4.4.

On to “LKKLLKLLKKWWKLAG [Peptide 2h, Ac-LKKLLKLLKKWWKLAG, 19]”, for which the equilibrium dissociation constant (Kd) is 1500 pM in experiment [3]; 5700 pM in experiment [4]; 2600 pM in experiment [1] (setting [7]); 2600 pM in experiment [1] (setting [10]); 1500 pM in experiment [2] (setting [9]); 1500 pM in experiment [2] (setting [11]). Also, in experiment [5], the Kd turned out to be 1700 pM. Also, in experiment [3], the “Discrimination ratio pre-miR24-1 (in parenthesis)” value was 1.9. Further, in experiment [1] (Table 6), the “Discrimination ratio pre-miR16-1 (in parenthesis)” value was 1.0. Moreover, in experiment [2] (Table 6), the “Discrimination ratio pre-let7a-1 (in parenthesis)” value came out at 1.8.

As for “LKKLLKWLKKLLKLAG [Peptide 1d, Ac-LKKLLKWLKKLLKLAG]”, the dissociation constant Kd in experiment [1] (setting [6]) came out at 1800 pM; in experiment [2] (setting [8]) it was 640 pM.

For the sequence “LKKLLKWLKKLLKWAG [Peptide 2g, Ac-LKKLLKWLKKLLKWAG, 18]”, the “discrimination ratio for pre-miR24-1” value in experiment [3] is recorded as 2.3. In addition, the Kd turned out to be 470 pM in experiment [3]; 1000 pM in experiment [4]; 1100 pM in experiment [1] (setting [7]); 1100 pM in experiment [1] (setting [10]); 960 pM in experiment [2] (setting [9]); 960 pM in experiment [2] (setting [11]). The sequence also showed a dissociation constant (Kd) in experiment [5] of 1300 pM. Moreover, the “Discrimination ratio pre-miR24-1 (in parenthesis)” value in experiment [3] turned out to be 2.3. In addition, the “Discrimination ratio pre-miR16-1 (in parenthesis)” value in experiment [1] (Table 6) was 0.99. Moreover, the “Discrimination ratio pre-let7a-1 (in parenthesis)” value in experiment [2] (Table 6) was 0.85.

With “LKKLWKLLKKLLKLAG [Peptide 1c, Ac-LKKLWKLLKKLLKLAG]”, the Kd was 560 pM in experiment [1] (setting [6]) and 410 pM in experiment [2] (setting [8]).

Take “LKKLWKLLKKLLKWAG [Peptide 2f, Ac-LKKLWKLLKKLLKWAG, 17]”: the Kd in experiment [3] was found to be 2200 pM; in experiment [4], 380 pM; in experiment [1] (setting [7]), 2100 pM; in experiment [1] (setting [10]), 2100 pM; in experiment [2] (setting [9]), 900 pM; in experiment [2] (setting [11]), 960 pM. In experiment [5], the Kd is 3800 pM. Further, the “Discrimination ratio pre-miR24-1 (in parenthesis)” value in experiment [3] worked out at 0.66. The “Discrimination ratio pre-miR16-1 (in parenthesis)” value in experiment [1] (Table 6) was 1.2. Moreover, the “Discrimination ratio pre-let7a-1 (in parenthesis)” value in experiment [2] (Table 6) came out at 9.3.

As for “LKKWLKLLKKLLKLAG [Peptide 1b, Ac-LKKWLKLLKKLLKLAG]”, the Kd in experiment [1] (setting [6]) was 1200 pM; in experiment [2] (setting [8]), 680 pM.

Regarding “WKKLLKLLKKLLKLAG [Peptide 1a, Ac-WKKLLKLLKKLLKLAG]”, the “binding with pre-miR16-1” value in experiment [1] is “significant increase in binding affinity”. In addition, the Kd in experiment [1] (setting [6]) was found to be 420 pM; in experiment [2] (setting [8]), 170 pM. The “binding with pre-let7a-1” value in experiment [2] was “significant increase in binding affinity”.

Consider “WKKLLKLLKKLLKWAG [Peptide 2e, Ac-WKKLLKLLKKLLKWAG, 16]”, for which the Kd amounted to 840 pM in experiment [3]; 340 pM in experiment [4]; 280 pM in experiment [1] (setting [7]); 280 pM in experiment [1] (setting [10]); 220 pM in experiment [2] (setting [9]); 900 pM in experiment [2] (setting [11]). Also, the Kd in experiment [5] stood at 760 pM. The “Discrimination ratio pre-miR24-1 (in parenthesis)” value in experiment [3] was 0.50. Also, in experiment [1] (Table 6), the “Discrimination ratio pre-miR16-1 (in parenthesis)” value is 2.3. For the same sequence, in experiment [1] (against other RNAs), the “discrimination ratio for pre-miR16-1” value amounted to 2.3. For the same sequence, in experiment [2] (Table 6), the “Discrimination ratio pre-let7a-1 (in parenthesis)” value worked out at 1.7.

For the sequence “WKKLLKLLKKLWKLAG [Peptide 2d, Ac-WKKLLKLLKKLWKLAG, 15]”, the Kd in experiment [3] was determined as 670 pM; in experiment [4] it was 790 pM; in experiment [1] (setting [7]), 640 pM; in experiment [1] (setting [10]), 640 pM; in experiment [2] (setting [9]), 250 pM; in experiment [2] (setting [11]), 220 pM. This sequence also gave a Kd in experiment [5] of 770 pM. Further, in experiment [3], the “Discrimination ratio pre-miR24-1 (in parenthesis)” value is recorded as 1.0. For the same sequence, the “Discrimination ratio pre-miR16-1 (in parenthesis)” value in experiment [1] (Table 6) was 1.2. In addition, the “Discrimination ratio pre-let7a-1 (in parenthesis)” value in experiment [2] (Table 6) is on record as 1.2.

As to “WKKLWKLLKKLLKLAG [Peptide 2a, Ac-WKKLWKLLKKLLKLAG, 12]”, the dissociation constant (Kd) was 820 pM in experiment [3]; 770 pM in experiment [4]; 320 pM in experiment [1] (setting [7]); 320 pM in experiment [1] (setting [10]); 230 pM in experiment [2] (setting [9]); 230 pM in experiment [2] (setting [11]). The sequence further registered a Kd in experiment [5] of 900 pM. Moreover, the “Discrimination ratio pre-miR24-1 (in parenthesis)” value in experiment [3] came to 0.66. In addition, the “Discrimination ratio pre-miR16-1 (in parenthesis)” value in experiment [1] (Table 6) turned out to be 2.6. Moreover, the “Discrimination ratio pre-let7a-1 (in parenthesis)” value in experiment [2] (Table 6) is given as 2.8.
